Results taken from patent publication US4543254A, “Antiphlogistic/antipyretic/analgesic agents containing theobromine or theophylline derivatives as active ingredient” (Eisai Co., Ltd., priority 1982, dated 1985).
Where two headings read alike, the source gives them in different places.

What was measured:
[1] = Analgesic activity: acetic acid writhing method (mice); format: in vivo, ddy-strain male mice; conditions: Mus musculus, po
Method: (a) Acetic acid writhing method^1
A 0.7% acetic acid solution was injected intraperitoneally to ddy-strain male mice (20 to 25 g) in an amount of 0.1 ml per 10 g mouse body weight to cause a writhing syndrome typified by stretching of the hind legs. The inhibitory action of each test compound against said symptom was observed as a measure of the analgesic activity of the compound.
(1) Hendershot, L. C. and Forsaith, J.: J. Pharmacol. Exp. Ther., 125, 237 (1959).
(2) Litchfield, Jr., J. T. and Wilcoxon, F.: J. Pharmacol. Exp. Ther., 96, 99 (1949).

[2] = Analgesic activity: bradykinin-induced pain response (rats); format: in vivo, SD male rats; conditions: Rattus norvegicus, po, read-out: Analgesic activity ED50
Method: (B) Bradykinin-induced pain response^3,4
A polyethylene tube was inserted into a common right carotid artery of SD male rats (250 to 350 g) and 0.5 microngram per 0.1 ml of bradykinin was injected into the artery through said tube. Response induced by bradykinin such as flexin of the right forelimb, dextro-rotation of the head and rearing were considered as being indices of pain response, and the analgesic action of each test compound was determined by observing its inhibition of responses such symptoms.
(3) T. Abe, T. Kaneko and H. Takagi: Japan Pharm. Soc. Bul., 67, 9-14 (1971)
(4) G. F. Blane: J. Pharma. Pharmacol., 19, 367 (1967)

[3] = Antipyretic activity: dry yeast-induced fever (rats); format: in vivo, SD male rats; conditions: Rattus norvegicus, po, read-out: ED, effective dose for reducing the fever by more than 1° C. when the compound action is at the peak
Method: A 2% suspension of dry yeast was injected sub-Cutaneously to SD male rats of 250 to 300 g body weight in an amount of 2 ml/animal to cause a fever, and 4 hours later, the compounds of this invention and control drugs were administered orally. The rectal temerature of each rat was measured periodically, and the dosage of each compound required to reduce the fever by more than 1° C. at the peak of its activity was determined.

[4] = Antiphlogistic activity: carrageenin paw edema (rats); format: in vivo, Wistar rats; conditions: Rattus norvegicus, po, 3 hours
Method: (3) Antiphlogistic activity^5
Each test compound of this invention was administered orally to Wistar rats of about 300 g body weight, and 30 minutes later 0.05 ml of a 1% carrageenin solution was injected into a paw of each rat. After three hours, the paw volume was measured to determine the degree of edema formation and the 30% effective dose (ED30) was calculated from the inhibition rate relative to a control group.
(5) R. Vinegar et al: J. Pharmacol. Exp. Ther., 166, 96 (1969)

[5] = in vivo; conditions: po, p.o., read-out: Safety margin (LD50/ED50)
Method: Ten mice were used for each dose and morality was determined for 3 days after administration of each test compound of the invention. In the case of the rats, 5 rats were used for each dose and morality was determined 7 days after administrations.

[6] = tested on: SD male rats; conditions: p.o., control drugs, given in Japan National Formulary, 6th Ed. (1982); cited from earlier work
[7] = tested on: ddy male mice; conditions: p.o., control drugs, given in Japan National Formulary, 6th Ed. (1982); cited from earlier work
[8] = rats, p.o., bradykinin-induced pain

Work on `Cn1cnc2c1c(=O)n(CCCN1CCN(c3ccc(Cl)c(Cl)c3)CC1)c(=O)n2C` [Compound A', 1-(3-(4-(3,4-dichlorophenyl)piperazinyl-(1))-n-propyl)theobromine] yielded an ED50 [1] of 7.2 mg/kg, an ED50 [2, 8] of 40 mg/kg and a minimal effective dose [3] of 40 mg/kg. The ED30 [4] was 25 mg/kg.
In the case of `Cn1c(=O)c2c(ncn2CCCCN2CCN(c3ccc(F)cc3)CC2)n(C)c1=O` [Compound A], the ED50 [1] is reported as 10 mg/kg, the ED50 [2, 8] is reported as 47 mg/kg and the minimal effective dose [3] is reported as 10 mg/kg. It also gave an ED30 [4] of 10 mg/kg, a selectivity ratio ([5]; mouse, mice) of 34 and a selectivity ratio ([5]; rat, rats) of 7.5 to 10.6.
With `Cc1cccc(N2CCN(CCn3c(=O)c4c(ncn4C)n(C)c3=O)CC2)c1C` [Compound B', 1-(2-(4-(2,3-dimethylphenyl)piperazinyl-(1))-ethyl)theobromine.2HCl] the ED50 [1] was 2.6 mg/kg, the ED50 [2, 8] was 20 mg/kg and the selectivity ratio ([5]; mouse, mice) was 230. For the same compound, the selectivity ratio ([5]; rat, rats) was no less than 100.
`Cn1c(=O)c2c(ncn2CCCCCN2CCN(c3ccc(Cl)cc3)CC2)n(C)c1=O` [Compound B] gave an ED50 [1] of 13.8 mg/kg, an ED50 [2, 8] of 40 mg/kg and a minimal effective dose [3] of 40 mg/kg. The ED30 [4] was 50 mg/kg, the selectivity ratio ([5]; mouse, mice) was 51 and the selectivity ratio ([5]; rat, rats) was 8.8 to 12.5.
`Cn1cnc2c1c(=O)n(CCCN1CCN(c3ccccc3Cl)CC1)c(=O)n2C` [Compound C', 1-(3-(4-o-chlorophenylpiperazinyl-(1))-n-propyl)theobromine.2HCl] showed an ED50 [1] of 3.3 mg/kg, an ED30 [4] of 10 mg/kg and a selectivity ratio ([5]; mouse, mice) of 61.
For `Cc1ccc(N2CCN(CCCn3cnc4c3c(=O)n(C)c(=O)n4C)CC2)cc1C` [Compound C], the ED50 [1] was 13.3 mg/kg, the ED50 [2, 8] was 57 mg/kg and the minimal effective dose [3] was 10 mg/kg. The selectivity ratio ([5]; mouse, mice) was greater than 60 and the selectivity ratio ([5]; rat, rats) was 13.6.
With `COc1ccccc1N1CCN(CCCCn2c(=O)c3c(ncn3C)n(C)c2=O)CC1` [Compound D', 1-(4-(4-o-methoxyphenylpiperazinyl-(1))-n-butyl)theobromine.2HCl] the ED50 [1] was 3.1 mg/kg and the selectivity ratio ([5]; mouse, mice) was 130 to 258.
Work on `Cn1c(=O)c2c(ncn2CCCCN2CCN(c3ccc(Cl)cc3)CC2)n(C)c1=O` [Compound D] yielded an ED50 [1] of 26 mg/kg, an ED50 [2] of 68 mg/kg and a minimal effective dose [3] of 40 mg/kg. It also gave an ED30 [4] of 25 mg/kg, a selectivity ratio ([5]; mouse, mice) of 22 and a selectivity ratio ([5]; rat, rats) of 7.6.
`Cn1cnc2c1c(=O)n(CCCCN1CCN(c3ccc(F)cc3)CC1)c(=O)n2C` [Compound E', 1-(4-(4-p-fluorophenylpiperazinyl-(1))-n-butyl)theobromie.2HCl] gave an ED50 [1] of 7.8 mg/kg, an ED30 [4] of 25 mg/kg and a selectivity ratio ([5]; mouse, mice) of 26.
With `Cn1cnc2c1c(=O)n(CCCCN1CCN(c3ccc(Cl)c(Cl)c3)CC1)c(=O)n2C` [Compound F', 1-(4-(4-(3,4-dichlorophenyl)piperazinyl-(1))-n-butyl)theobromine.2HCl] the ED50 [1] was 7.8 mg/kg and the selectivity ratio ([5]; mouse, mice) was 51 to 103.
Work on `Cn1c(=O)c2c(ncn2CCCCCN2CCN(c3cccc(C(F)(F)F)c3)CC2)n(C)c1=O` [Compound F] yielded an ED50 [1] of 27.1 mg/kg, an ED50 [2, 8] of 63 mg/kg and a minimal effective dose [3] of 10 mg/kg. For the same compound, the ED30 [4] was 25 mg/kg, the selectivity ratio ([5]; mouse, mice) was no less than 30 and the selectivity ratio ([5]; rat, rats) was 10.5.
In the case of `Cc1cccc(N2CCN(CCCCCn3c(=O)c4c(ncn4C)n(C)c3=O)CC2)c1` [Compound G', 1-(5-(4-m-methylphenylpiperazinyl-(1))-n-pentyl)theobromine.2HCl], the ED50 [1] is reported as 13.5 mg/kg, the ED30 [4] is reported as 25 mg/kg and the selectivity ratio ([5]; mouse, mice) is reported as 22.
In the case of `COc1cc(C)nc(-n2nc(C)cc2OC)n1` [Control drug I, 4-methoxy-2-(5-methoxy-3-methylpyrazol-1-yl)-6-methylpyrimidine, reference compound], the ED50 [1] is reported as 240 mg/kg, the ED50 [2, 8] is reported as no less than 160 mg/kg and the minimal effective dose [3] is reported as 40 mg/kg. For the same compound, the selectivity ratio ([5]; mouse, mice) was 4.3, the selectivity ratio ([5]; rat, rats) was no more than 3 and the “Acute toxicity LD50” value [6] was 526 mg/kg.
`O=C(Cn1c(=O)sc2ccc(Cl)cc21)N1CCN(CCO)CC1` [Control drug II, 4-((5-chloro-2-oxo-3(2H)-benzothiazolyl)acetyl)-1-piperazineethanol, reference compound] showed an ED50 [1] of 66 mg/kg, an ED50 [2, 8] of no less than 160 mg/kg and a minimal effective dose [3] of 40 mg/kg. The selectivity ratio ([5]; mouse, mice) was 8.5, the selectivity ratio ([5]; rat, rats) was no more than 23 and the “Acute toxicity LD50” value [7] was 564 mg/kg. For the same compound, the “Acute toxicity LD50” value [6] was 3,600 mg/kg.
Compound `OC(CN1CCCCC1)c1cc(-c2ccccc2)on1` (stereo not shown) [Control drug III, 3-(1-hydroxy-2-piperadinoethyl)-5-phenylisoxazole, reference compound] has an ED50 [1] of 120 mg/kg, an ED50 [2, 8] of 160 mg/kg and a minimal effective dose [3] of 160 mg/kg. The selectivity ratio ([5]; mouse, mice) was 5.1, the selectivity ratio ([5]; rat, rats) was 12 and the “Acute toxicity LD50” value [7] was 612 mg/kg. For the same compound, the “Acute toxicity LD50” value [6] was 1,978 mg/kg.
